Experiments:
Assay in all cases: cells
Settings in all cases: Homo sapiens
HCC1419 = format: functional, cell-based;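 further: growth inhibition of human HCC1419 cells, read out as cell viability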
Description: SANGER: Inhibition of human HCC1419 cell growth in a cell viability assay.

KYSE-180 = format: functional, cell-based;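 further: growth inhibition of KYSE-180 cells, read out with a cell viability assay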
Description: SANGER: Inhibition of human KYSE-180 cell growth in a cell viability assay.

NCI-H1755 = format: functional, cell-based;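 further: cell viability readout used to measure growth inhibition of NCI-H1755 cells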
Description: SANGER: Inhibition of human NCI-H1755 cell growth in a cell viability assay.

KYSE-410 = format: functional, cell-based;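 further: growth inhibition of KYSE-410 cells, measured through a cell viability readout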
Description: SANGER: Inhibition of human KYSE-410 cell growth in a cell viability assay.

A-427 = format: functional, cell-based;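 further: growth inhibition of human A-427 cells, read out by a cell viability assay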
Description: SANGER: Inhibition of human A427 cell growth in a cell viability assay.

MEL-JUSO = format: functional, cell-based;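 further: growth inhibition of human MEL-JUSO cells, read out with a cell viability assay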
Description: SANGER: Inhibition of human MEL-JUSO cell growth in a cell viability assay.

MEL-HO = format: functional, cell-based
Description: SANGER: Inhibition of human MEL-HO cell growth in a cell viability assay.

EFM-19 = format: functional, cell-based;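 further: growth inhibition of human EFM-19 cells, measured in a cell viability assay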
Description: SANGER: Inhibition of human EFM-19 cell growth in a cell viability assay.

P12-Ichikawa = format: functional, cell-based
KP-4 = format: functional, cell-based;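 further: human KP-4 cells, with growth inhibition read out through a cell viability assay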
Description: SANGER: Inhibition of human KP-4 cell growth in a cell viability assay.

NCI-H2228 = format: functional, cell-based;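 further: growth inhibition of human NCI-H2228 cells, read out by a cell viability assay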
Description: SANGER: Inhibition of human NCI-H2228 cell growth in a cell viability assay.

ABC-1 = format: functional, cell-based;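 further: growth inhibition of human ABC-1 cells, read out by a cell viability assay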
Description: SANGER: Inhibition of human ABC-1 cell growth in a cell viability assay.

U-251 = format: functional, cell-based;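 further: growth inhibition of human U-251 cells, read out through a cell viability assay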
Description: SANGER: Inhibition of human U251 cell growth in a cell viability assay.

KYSE-70 cell line = format: functional, cell-based;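 further: cell viability assay read-out, with IC50 expressing suppression of KYSE-70 cell growth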
Description: SANGER: Inhibition of human KYSE-70 cell growth in a cell viability assay.

GCT = format: functional, cell-based;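 further: GCT cell line proliferation inhibition, read out with a cell viability assay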
Description: SANGER: Inhibition of human GCT cell growth in a cell viability assay.

BXPC-3 = format: functional, cell-based;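 further: growth inhibition of human BxPC-3 cells, read out by a cell viability assay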
Description: SANGER: Inhibition of human BxPC-3 cell growth in a cell viability assay.

OVCAR-3 = format: functional, cell-based;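 further: growth inhibition of human OVCAR-3 cells, determined by a cell viability assay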
Description: SANGER: Inhibition of human OVCAR-3 cell growth in a cell viability assay.

LCLC-103H cell line = format: functional, cell-based
Description: SANGER: Inhibition of human LCLC-103H cell growth in a cell viability assay.

NCI-H2342 = format: functional, cell-based;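 further: growth inhibition of the cancer cell line, determined with a cell viability assay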
Description: SANGER: Inhibition of human NCI-H2342 cell growth in a cell viability assay.

SK-LU-1 = format: functional, cell-based;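 further: cell viability assay measuring growth inhibition of human SK-LU-1 cells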
Description: SANGER: Inhibition of human SK-LU-1 cell growth in a cell viability assay.

UMC-11 = format: functional, cell-based;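 further: growth inhibition of UMC-11 cells, read out with a cell viability assay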
Description: SANGER: Inhibition of human UMC-11 cell growth in a cell viability assay.

HTC-C3 = format: functional, cell-based;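 further: inhibition of cell growth, read out with a cell viability assay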
Description: SANGER: Inhibition of human HTC-C3 cell growth in a cell viability assay.

HT-1376 = format: functional, cell-based
Description: SANGER: Inhibition of human HT-1376 cell growth in a cell viability assay.

LCLC-97TM1 = format: functional, cell-based;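 further: cell viability assay measuring growth inhibition of human LCLC-97TM1 cells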
Description: SANGER: Inhibition of human LCLC-97TM1 cell growth in a cell viability assay.

CAKI-1 = format: functional, cell-based;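 further: growth inhibition of CAKI-1 cells, measured by a cell viability assay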
Description: SANGER: Inhibition of human CAKI-1 cell growth in a cell viability assay.

A673 = format: functional, cell-based;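 further: growth inhibition of human A673 cells, read out through a cell viability assay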
Description: SANGER: Inhibition of human A673 cell growth in a cell viability assay.

HuCCT-1 = format: functional, cell-based, HuCCT1;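 further: growth inhibition of HuCCT-1 cells, read out by a cell viability assay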
Description: SANGER: Inhibition of human HuCCT1 cell growth in a cell viability assay.

PC-3 = format: functional, cell-based
Description: SANGER: Inhibition of human PC-3 cell growth in a cell viability assay.

YAPC = format: functional, cell-based;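 further: growth inhibition of YAPC cells, measured with a cell viability assay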
Description: SANGER: Inhibition of human YAPC cell growth in a cell viability assay.

BT-20 = format: functional, cell-based;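 further: cell viability assay measuring suppression of growth in human BT-20 cells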
Description: SANGER: Inhibition of human BT-20 cell growth in a cell viability assay.

SK-OV-3 = format: functional, cell-based;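 further: growth inhibition of SK-OV-3 human cells, read out with a cell viability assay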
Description: SANGER: Inhibition of human SK-OV-3 cell growth in a cell viability assay.

UMUC3 = format: functional, cell-based;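 further: growth inhibition of human UM-UC-3 cells, read out with a cell viability assay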
Description: SANGER: Inhibition of human UM-UC-3 cell growth in a cell viability assay.

SNU-387 = format: functional, cell-based
Description: SANGER: Inhibition of human SNU-387 cell growth in a cell viability assay.

D-542MG = format: functional, cell-based
Description: SANGER: Inhibition of human D-542MG cell growth in a cell viability assay.

SK-MES-1 = format: functional, cell-based;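 further: growth inhibition of human SK-MES-1 cells, read out with a cell viability assay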
Description: SANGER: Inhibition of human SK-MES-1 cell growth in a cell viability assay.

MCF7 = format: functional, cell-based;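 further: growth inhibition of human MCF7 cells, read out with a cell viability assay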
Description: SANGER: Inhibition of human MCF7 cell growth in a cell viability assay.

NCI-H1793 = format: functional, cell-based;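 further: cell growth inhibition, read out by a cell viability assay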
Description: SANGER: Inhibition of human NCI-H1793 cell growth in a cell viability assay.

DoTc2-4510 = format: functional, cell-based
SW13 = format: functional, cell-based;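 further: IC50 is inhibition of SW13 cell growth, read out with a cell viability assay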
Description: SANGER: Inhibition of human SW13 cell growth in a cell viability assay.

NCI-H2087 = format: functional, cell-based;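 further: growth inhibition determined with a cell viability readout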
Description: SANGER: Inhibition of human NCI-H2087 cell growth in a cell viability assay.

CAL-120 = format: functional, cell-based;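 further: cell growth inhibition, read out as cell viability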
Description: SANGER: Inhibition of human CAL-120 cell growth in a cell viability assay.

LoVo = format: functional, cell-based;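 further: growth inhibition of human LoVo cells, read out with a cell viability assay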
Description: SANGER: Inhibition of human LoVo cell growth in a cell viability assay.

Measured: IC50

Cc1ccc(-n2nc(C(C)(C)C)cc2NC(=O)Nc2ccc(OCCN3CCOCC3)c3ccccc23)cc1 [DORAMAPIMOD]
> 10000 nM: HCC1419 | KYSE-180 | NCI-H1755 | KYSE-410 | A-427 | MEL-JUSO | MEL-HO | EFM-19 | P12-Ichikawa | KP-4 | NCI-H2228 | ABC-1 | U-251 | KYSE-70 cell line | GCT | BXPC-3 | OVCAR-3 | LCLC-103H cell line | NCI-H2342 | SK-LU-1 | UMC-11 | HTC-C3 | HT-1376 | LCLC-97TM1 | CAKI-1 | A673 | HuCCT-1 | PC-3 | YAPC | BT-20 | SK-OV-3 | UMUC3 | SNU-387 | D-542MG | SK-MES-1 | MCF7 | NCI-H1793 | DoTc2-4510 | SW13 | NCI-H2087 | CAL-120 | LoVo

CN(NC(=O)CC(=O)NN(C)C(=S)c1ccccc1)C(=S)c1ccccc1 [ELESCLOMOL]
5.52 nM: HuCCT-1
78.6 nM: LoVo
35.2 nM: BT-20
19.7 nM: KYSE-410
10.6 nM: MEL-JUSO
43.3 nM: NCI-H2342
> 200 nM: MEL-HO | BXPC-3 | LCLC-103H cell line | UMC-11 | HT-1376 | LCLC-97TM1 | D-542MG | SK-MES-1 | NCI-H1793 | DoTc2-4510 | NCI-H2087
2.17 nM: KP-4
4.04 nM: P12-Ichikawa
11.6 nM: A673
31.4 nM: MCF7
23.8 nM: KYSE-180
70.3 nM: YAPC
6.2 nM: OVCAR-3
14 nM: CAL-120
7.89 nM: PC-3
7.69 nM: SW13
7.06 nM: UMUC3
23.4 nM: GCT
9.49 nM: SNU-387
13.3 nM: NCI-H1755
19.6 nM: HCC1419
0.365 nM: ABC-1
82.5 nM: EFM-19
24.1 nM: CAKI-1
54 nM: KYSE-70 cell line
9.86 nM: U-251
30.4 nM: HTC-C3
3.75 nM: SK-OV-3
10.3 nM: SK-LU-1
30.9 nM: NCI-H2228
6.07 nM: A-427

CC1=C(/C=C/C(C)=C/C=C/C(C)=C/C(=O)O)C(C)(C)CCC1 [TRETINOIN]
> 10000 nM: HCC1419 | NCI-H1755 | KYSE-410 | A-427 | MEL-JUSO | MEL-HO | EFM-19 | P12-Ichikawa | KP-4 | NCI-H2228 | ABC-1 | U-251 | KYSE-70 cell line | GCT | BXPC-3 | OVCAR-3 | LCLC-103H cell line | NCI-H2342 | SK-LU-1 | UMC-11 | HTC-C3 | HT-1376 | LCLC-97TM1 | CAKI-1 | A673 | HuCCT-1 | PC-3 | YAPC | BT-20 | SK-OV-3 | UMUC3 | SNU-387 | D-542MG | SK-MES-1 | MCF7 | NCI-H1793 | DoTc2-4510 | SW13 | NCI-H2087 | CAL-120 | LoVo
6700 nM: KYSE-180

NC(=O)c1ccc(N(C(N)=O)c2c(F)cccc2F)nc1-c1ccc(F)cc1F [VX-702]
> 2000 nM: HCC1419 | KYSE-180 | NCI-H1755 | KYSE-410 | A-427 | MEL-JUSO | MEL-HO | EFM-19 | P12-Ichikawa | KP-4 | NCI-H2228 | ABC-1 | U-251 | KYSE-70 cell line | GCT | BXPC-3 | OVCAR-3 | LCLC-103H cell line | NCI-H2342 | SK-LU-1 | UMC-11 | HTC-C3 | HT-1376 | LCLC-97TM1 | CAKI-1 | A673 | HuCCT-1 | PC-3 | YAPC | BT-20 | SK-OV-3 | UMUC3 | SNU-387 | D-542MG | SK-MES-1 | MCF7 | NCI-H1793 | DoTc2-4510 | SW13 | NCI-H2087 | CAL-120 | LoVo

NC(=O)Nc1cc(-c2cccc(F)c2)sc1C(=O)N[C@H]1CCCNC1 [AZD-7762]
980 nM: LCLC-103H cell line
865 nM: A673
835 nM: HTC-C3
1460 nM: KP-4
1290 nM: NCI-H2228
903 nM: UMUC3
649 nM: GCT
261 nM: ABC-1
708 nM: HuCCT-1
979 nM: MEL-HO
402 nM: KYSE-180
1310 nM: BXPC-3
243 nM: SNU-387
84.2 nM: SK-LU-1
274 nM: OVCAR-3
1770 nM: UMC-11
43.2 nM: P12-Ichikawa
> 2000 nM: HCC1419 | U-251 | KYSE-70 cell line | NCI-H2342 | HT-1376 | PC-3 | YAPC | SK-OV-3 | D-542MG | MCF7 | SW13 | NCI-H2087 | CAL-120
1480 nM: EFM-19
1040 nM: KYSE-410
316 nM: LCLC-97TM1
443 nM: SK-MES-1
198 nM: A-427
162 nM: LoVo
1720 nM: BT-20
1610 nM: NCI-H1793
131 nM: MEL-JUSO
287 nM: CAKI-1
782 nM: DoTc2-4510
273 nM: NCI-H1755

Source: ChEMBL document CHEMBL1201861, “Genomics of Drug Sensitity in Cancer screening data, Wellcome Trust Sanger Institute”
